Four compounds from US20230330059A1, “3-PHENYL-2H-CHROMENE DERIVATIVE AND PHARMACEUTICAL COMPOSITION FOR PREVENTING OR TREATING ALZHEIMER'S, CONTAINING SAME” (NEUROBIONET, INC., priority 2020, published 2023) can be followed below.

Where two headings read alike, the source gives them in different places.

For experiment [1], the system named is nitric oxide production in LPS-treated BV2 cells. Kind of experiment: Nitric oxide production (Griess) in LPS-treated BV2 cells. It counts as cell-based, mouse. The settings on record: LPS (100 ng/ml) 24 hours, Griess reagent, cell type not stated in Table 1, read-out: IC50 (NO production). The method, then: BV2 cells were seeded at a density of 4 x 10^5 cells/well into 96-well plates, and primary microglial cells isolated from the brain of […] ICR mice were seeded at a density of 4 x 10^5 cells/well into 24-well plates.
The culture media were collected and measured for NO production using a Griess reagent solution (1% sulfanilamide and 0.1% N-1-naphthyl ethylenediamine dihydrochloride in 5% phosphoric acid). Briefly, a total of 50 µL of the supernatant was transferred to new 96-well plates and mixed with the same volume of the Griess reagent solution, followed by measuring OD at 570 nm. In addition, the cell viability was assayed in the same manner as in Experimental Example 2.

The test system of experiment [2] is N2a cells. Kind of experiment: Neurite outgrowth in N2a cells (Incucyte). Type of experiment: cell-based, mouse. The settings on record: 5 µM, FIGS. 14a and 14b. The method, then: N2a cells were aliquoted at a density of 1x10^4 cells/well into 24-well plates, treated with daidzein, o-desmethylangolensin, S-equal, SPA1413 and SPA1426 at 5 µM, and evaluated for neurite outgrowth by the real-time cell monitoring system InCucyte. The cells were photographed every 2 hours, and the neurites were counted through Incucyte software.

With `CC(C(=O)c1ccc(O)cc1O)c1ccc(O)cc1` (centres unmarked) [O-DMA, o-desmethylangolensin, reference compound], the IC50 in experiment [1] is 34.7 µM.
Consider `CNC(=N)NCCC[C@H](N)C(=O)O` [L-NMMA, reference compound], for which, in experiment [1], the concentration for half-maximal inhibition (IC50) was 15.1 µM.
Regarding `Oc1ccc([C@H]2COc3cc(O)ccc3C2)cc1` [S-equol, reference compound], the 50% inhibitory concentration (IC50) in experiment [1] was found to be 11.7 µM.
As for `O=c1c(-c2ccc(O)cc2)coc2cc(O)ccc12` [Daidzein, reference compound], the IC50 in experiment [1] (Mus musculus, BV-2) was 86.5 µM. The neurite outgrowth entry in experiment [2] is reported as “significantly increased”.
